What was measured:
[1] = tested on: C57BL/KsJ mice; test: acute oral glucose tolerance test (OGTT) and blood insulin in mice; assay type: in vivo; conditions: for acute oral glucose tolerance in mice: both 100 mg/kg and 200 mg/kg; for acute oral glucose tolerance in mice, compared with Sitagliptin (10 mg/kg): higher dose (200 mg/kg)
Procedure: Oral glucose tolerance test (OGTT) method: 8-week old male C57BL/KsJ mice (Shanghai Slac Laboratory Animal Company), 8 for each group, weight of 20±2 g, were fed according to SPF grade operation procedure and fasted for 16 hours prior to experiment. Blood was collected from tail vein of each group of mice prior to experiment. Blood glucose concentrations were measured using Roche ACCU-CHEK glucometer and recorded as time 0. Different concentrations of the compound were intragastric administrated to each administration group of mice, respectively. Equal volume of distilled water was given to control group of mice. The dosage volume was 10 ml/kg. Half an hour after administration, 5 g/kg glucose was intragastric administrated to each group of mice. Blood glucose concentrations of each group of mice were measured and recorded at 20 mins, 40 mins, and 80 mins after the intragastric administration. OGTT curves were recorded. Areas under the curves (AUC) were calibrated with the data in blood glucose of mice to which glucose was not given (calibration group). ONE-WAY-ANOVA was used to compare significant difference between each group (Note: all the experimental methods for acute oral glucose tolerance test in the following activity examples are the same to the experimental method in Example 5, unless otherwise indicated). Blood was collected from tail vein at 20 mins after oral administration of glucose for mice. ELISA (kit was bought from Millipore, USA) was utilized for measuring blood insulin level of mice.

[2] = molecular target: T1, DDP4 enzyme (Homo sapiens, UniProt P27487); test: in vitro inhibiting activity against DDP4 enzyme (Caco-2 cell lysis solution, H-Gly-Pro-AMC substrate); assay type: biochemical; conditions: for inhibition rate against DDP4: 100 μM; for inhibition at 100 µM: read-out: inhibition rate against DDP4
T1 construct: cell lysis solution of human colon cancer cell line Caco-2 as DDP4 enzyme source; endogenous in cells; host or cells: Caco-2 (human colon cancer cell line) lysate
Procedure: Experimental method: (1) determination of inhibiting activity of Compound I and Compound II against DDP4 enzyme in vitro: cell lysis solution of human colon cancer cell line Caco-2 as DDP4 enzyme source (Thomas, L., et al, 2008, JPET). In a drug screening system of 96-well plate, 100 μL/well, the final concentration of H-Gly-Pro-AMC substrate (AnaSpec) was 244 μM, in which different concentrations of test compounds were added for incubation at 37° C. for 30 mins Fluorescence signals were detected at excitation wavelength 380 nm/emission wavelengths 460 nm Inhibition rates (%) on the enzyme of test samples against DDP4 were calculated according to fluorescence absorption value obtained by detection. The inhibition rate (%) is calculated according to the following formula: Inhibition rate (%)=(RFU blank−RFU compound)/(RFU blank−RFU negative control)*100%
RFU compound, RFU blank, and RFU negative control represent the difference of fluorescence values at 30 mins and at 0 min from a compound well, a blank well, and a negative control well free of enzyme; (2) effect of Compound I and Compound II for acute glucose tolerance in mice: the OGTT experimental method was the same to Example 5, the mice were divided into control group; calibration group; Compound I lower dose group (100 mg/kg); Compound I higher dose group (200 mg/kg); Compound II lower dose group (100 mg/kg); Compound II higher dose group (200 mg/kg); and positive drug group (Sitagliptin 10 mg/kg, Merck Company, USA).

[3] = molecular target: T2, glucose oxidase (GOX) (Homo sapiens, UniProt Q9UJM8); test: inhibitory activity against glucose oxidase (GOX), enzyme coupling method with glycolic acid substrate; assay type: biochemical; design: Vmax: unit not given here; conditions: for inhibition at 0.1 µM / inhibition at 0.3 µM / inhibition at 1 µM / inhibition at 3 µM / inhibition at 10 µM / inhibition at 30 µM / inhibition at 100 µM: read-out: Inhibition rate; for IC50: fitted by Graphpad Prism 5.0, tested 100 μM-0.1 μM
T2 sequence (Q9UJM8 1-370): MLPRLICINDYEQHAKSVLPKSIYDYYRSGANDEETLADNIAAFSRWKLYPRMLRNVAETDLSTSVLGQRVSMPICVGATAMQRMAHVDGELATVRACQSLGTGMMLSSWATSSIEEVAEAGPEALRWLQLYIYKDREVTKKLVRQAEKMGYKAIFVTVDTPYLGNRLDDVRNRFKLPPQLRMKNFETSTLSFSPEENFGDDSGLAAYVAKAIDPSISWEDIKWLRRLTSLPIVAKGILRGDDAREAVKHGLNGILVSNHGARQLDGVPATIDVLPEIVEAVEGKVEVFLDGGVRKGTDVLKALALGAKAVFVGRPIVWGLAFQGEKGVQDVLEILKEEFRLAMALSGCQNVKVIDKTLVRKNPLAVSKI
Procedure: Mechanism of experiment: enzyme coupling method utilizes peroxidase (POD) and substrates thereof to react with generated H2O2 to produce colored products so as to determine the catalytic reaction rate of glucose oxidase. POD catalyzes H2O2 to react with phenol and 4-amino antipyrine to produce brown-red quinone substances.
Experimental method: reagents were added according to the table below; the reaction was immediately initiated upon the final addition of substrate glycolic acid; the kinetic course of the reaction was detected by microplate reader; the enzyme activity was represented by Vmax, maximum reaction velocity.
The measurement results were fitted by Graphpad Prism 5.0 to calculate IC50 values.

T1 sequence (P27487 whole entry): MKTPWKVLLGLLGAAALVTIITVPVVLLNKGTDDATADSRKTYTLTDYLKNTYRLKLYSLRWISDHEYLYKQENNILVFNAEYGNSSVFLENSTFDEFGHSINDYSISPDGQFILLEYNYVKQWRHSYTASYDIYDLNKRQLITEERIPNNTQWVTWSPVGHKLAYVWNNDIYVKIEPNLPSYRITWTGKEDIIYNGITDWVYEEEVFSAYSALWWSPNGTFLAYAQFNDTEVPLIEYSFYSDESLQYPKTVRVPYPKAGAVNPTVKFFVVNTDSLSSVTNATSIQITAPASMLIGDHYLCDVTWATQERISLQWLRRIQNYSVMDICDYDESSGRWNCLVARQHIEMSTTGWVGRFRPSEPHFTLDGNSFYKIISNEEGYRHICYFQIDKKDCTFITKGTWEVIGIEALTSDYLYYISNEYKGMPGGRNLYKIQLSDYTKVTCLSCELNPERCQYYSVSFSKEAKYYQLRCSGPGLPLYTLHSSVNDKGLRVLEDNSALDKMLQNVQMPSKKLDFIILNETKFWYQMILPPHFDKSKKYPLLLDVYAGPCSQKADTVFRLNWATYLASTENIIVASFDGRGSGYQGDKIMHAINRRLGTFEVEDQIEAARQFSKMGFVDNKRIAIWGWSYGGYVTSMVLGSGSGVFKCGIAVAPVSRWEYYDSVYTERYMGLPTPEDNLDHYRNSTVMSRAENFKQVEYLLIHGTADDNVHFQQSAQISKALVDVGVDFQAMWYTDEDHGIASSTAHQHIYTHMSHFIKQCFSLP

Row | Structure (SMILES) | acute oral glucose tolerance in mice [1] | acute oral glucose tolerance in mice, compared with Sitagliptin (10 mg/kg) [1] | inhibition rate against DDP4 [2] | inhibition at 100 µM [2] | Vmax ([3]; 0.1 μM) | inhibition at 0.1 µM ([3]; 0.1 μM) | Vmax ([3]; 0.3 μM) | inhibition at 0.3 µM ([3]; 0.3 μM) | Vmax ([3]; 1 μM) | inhibition at 1 µM ([3]; 1 μM) | Vmax ([3]; 3 μM) | inhibition at 3 µM ([3]; 3 μM) | Vmax ([3]; 10 μM) | inhibition at 10 µM ([3]; 10 μM) | Vmax ([3]; 30 μM) | inhibition at 30 µM ([3]; 30 μM) | Vmax ([3]; 100 μM) | inhibition at 100 µM ([3]; 100 μM) | IC50 [3]
1 | O=C(O)C1O[C@@H](OC2C(O)[C@H](O)C(C(=O)O)O[C@H]2Oc2cc(O)c3c(=O)cc(-c4ccc(O)c(O)c4)oc3c2)C(O)C(O)[C@@H]1O (stereo partly drawn) [Compound I, luteolin-7-O-[β-glucuronosyl(1→2)β-glucuronic acid]] | significantly enhance acute oral glucose tolerance | activity comparable to the commercial chemical drug, Sitagliptin | 40.8% | 40.8 ± 3.26% | 35.13 ± 0.22 | 1.54 ± 0.62% | 35.47 ± 0.98 | 0.6 ± 2.74% | 35.36 ± 0.65 | 0.9 ± 1.82% | 35.39 ± 0.63 | 0.83 ± 1.77% | 35.08 ± 0.21 | 1.69 ± 0.58% | 34.04 ± 0.65 | 4.6 ± 1.82% | 29.34 ± 0.10 | 17.8 ± 0.29% | 500 µM
2 | O=C(O)C1O[C@@H](OC2C(O)[C@H](O)C(C(=O)O)O[C@H]2Oc2cc(O)c3c(=O)cc(-c4ccc(O)cc4)oc3c2)C(O)C(O)[C@@H]1O (stereo partly drawn) [Compound II, apigenin-7-O-[β-glucuronosyl(1→2)β-glucuronic acid]] | significantly enhance acute oral glucose tolerance | activity comparable to the commercial chemical drug, Sitagliptin | 34.1% | 34.1 ± 3.91% | 36.05 ± 0.85 | -1.04 ± 2.39% | 36.35 ± 0.84 | -1.88 ± 2.35% | 35.42 ± 0.43 | 0.74 ± 1.19% | 35.85 ± 1.03 | -0.48 ± 2.9% | 35.63 ± 1.00 | 0.15 ± 2.81% | 33.88 ± 0.98 | 5.05 ± 2.76% | 29.13 ± 0.80 | 18.4 ± 2.23% | 400 µM

From patent US10966996B2, “Glechoma longitube extract, preparation method for same, and use thereof in sugar reduction, weight loss, and lipid reduction” (SHANGHAI INSTITUTE OF MATERIA MEDICA CHINESE ACADEMY OF …, priority 2014, dated 2021)
